Experiment [1] has as its system Mice. As to the kind of experiment: subcutaneous bicuculline (scBIC). It is filed as in vivo. The note with it: Single IP drug dose, 2.7 mg/kg BIC; from 10-200 mg/kg; inconclusive?
Here is the method: (§1) Bicuculline (Bic) and Picrotoxin (Pic) are chemoconvulsants that cause clonic seizures in a manner similar to Metrazol (see scMET test). […] Therefore, as much as possible it is useful to differentiate novel AEDs pharmacologically. […]. At a previously determined time of peak effect (TPE), the animals are given a subcutaneous injection of either of the noted chemo-convulsants using the convulsive dose (CD97—a dose of 2.7 or 2.5 mg/kg, for Bic and Pic, respectively). The experimental animals are placed in isolation cages to minimize possible crowding stresses (Swinyard et al., 1961) and observed for the next 30 minutes (for Bic) or 45 minutes (for Pic) for the presence or absence of a seizure. An episode of clonic spasms, approximately 3-5 seconds, of the fore and/or hindlimbs, jaws, or vibrissae is used as the experimental endpoint.

Experiment [2] deals with GABAB receptor (Rattus norvegicus, UniProt Q9Z0U4). As to conditions: 100 μM, rat brain cortical homogenate.
Sequence of GABAB receptor (Q9Z0U4 17-960 limits assumed): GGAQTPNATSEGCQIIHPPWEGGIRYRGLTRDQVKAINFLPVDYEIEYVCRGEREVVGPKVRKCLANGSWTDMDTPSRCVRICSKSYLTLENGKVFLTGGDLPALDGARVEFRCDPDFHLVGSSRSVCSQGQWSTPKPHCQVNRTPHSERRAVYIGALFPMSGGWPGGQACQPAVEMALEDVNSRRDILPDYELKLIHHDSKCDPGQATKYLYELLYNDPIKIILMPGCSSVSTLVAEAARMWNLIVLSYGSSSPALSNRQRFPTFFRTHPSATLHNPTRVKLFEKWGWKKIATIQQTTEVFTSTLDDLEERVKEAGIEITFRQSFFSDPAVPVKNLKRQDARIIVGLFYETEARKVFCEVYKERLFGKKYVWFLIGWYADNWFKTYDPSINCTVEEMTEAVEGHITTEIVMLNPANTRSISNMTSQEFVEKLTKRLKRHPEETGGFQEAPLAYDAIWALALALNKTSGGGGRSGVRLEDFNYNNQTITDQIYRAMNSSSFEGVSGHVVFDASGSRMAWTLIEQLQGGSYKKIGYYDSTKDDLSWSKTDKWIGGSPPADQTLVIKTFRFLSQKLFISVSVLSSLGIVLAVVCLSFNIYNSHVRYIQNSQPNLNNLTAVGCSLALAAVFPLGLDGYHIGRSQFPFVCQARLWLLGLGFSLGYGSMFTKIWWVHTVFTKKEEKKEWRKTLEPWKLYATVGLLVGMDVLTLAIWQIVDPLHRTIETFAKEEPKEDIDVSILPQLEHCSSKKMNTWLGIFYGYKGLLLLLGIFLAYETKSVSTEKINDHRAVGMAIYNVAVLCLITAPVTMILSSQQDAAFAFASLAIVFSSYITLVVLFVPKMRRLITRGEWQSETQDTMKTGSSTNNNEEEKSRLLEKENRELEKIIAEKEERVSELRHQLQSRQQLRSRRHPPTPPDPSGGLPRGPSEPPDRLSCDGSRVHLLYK
Sequence of GABAB receptor (O88871 41-940 partner): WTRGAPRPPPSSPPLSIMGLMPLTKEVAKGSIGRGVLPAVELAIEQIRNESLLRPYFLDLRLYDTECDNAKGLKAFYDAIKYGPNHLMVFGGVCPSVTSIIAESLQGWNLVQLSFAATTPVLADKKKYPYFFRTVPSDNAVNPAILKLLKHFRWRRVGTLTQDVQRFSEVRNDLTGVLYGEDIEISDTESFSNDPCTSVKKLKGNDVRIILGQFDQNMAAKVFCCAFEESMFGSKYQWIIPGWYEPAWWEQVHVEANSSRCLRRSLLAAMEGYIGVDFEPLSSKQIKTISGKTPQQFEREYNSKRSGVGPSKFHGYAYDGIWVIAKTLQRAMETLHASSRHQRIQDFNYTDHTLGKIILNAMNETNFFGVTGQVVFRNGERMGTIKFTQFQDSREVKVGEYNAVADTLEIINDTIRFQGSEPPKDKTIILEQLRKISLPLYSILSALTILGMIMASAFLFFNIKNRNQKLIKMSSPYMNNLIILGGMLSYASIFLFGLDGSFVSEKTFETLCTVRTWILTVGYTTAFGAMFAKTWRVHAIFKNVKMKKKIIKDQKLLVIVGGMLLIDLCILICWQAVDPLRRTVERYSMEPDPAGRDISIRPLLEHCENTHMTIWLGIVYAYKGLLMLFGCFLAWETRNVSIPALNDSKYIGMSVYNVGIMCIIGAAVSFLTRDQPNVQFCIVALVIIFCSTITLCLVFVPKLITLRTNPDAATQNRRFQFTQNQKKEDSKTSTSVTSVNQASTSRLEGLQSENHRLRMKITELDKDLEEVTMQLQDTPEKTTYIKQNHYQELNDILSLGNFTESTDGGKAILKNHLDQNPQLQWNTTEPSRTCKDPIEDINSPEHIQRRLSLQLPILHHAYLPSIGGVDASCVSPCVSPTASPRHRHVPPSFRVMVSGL
The subject of experiment [3] is Sprague-Dawley rats. As to conditions: for time spent in chamber, first printed value / time spent in chamber, second printed value: 1.0 mg/kg i.p.
For experiment [4], the system named is Mice. As to the kind of experiment: subcutaneous picrotoxin (scPIC). Type of experiment: in vivo. Here is the method:
as §1

For experiment [5], the system named is GABAA receptor.
In experiment [6] the target is T1, human ρ1 GABAC receptors (Homo sapiens, UniProt P24046).
T1 construct: expressed in transfected cells; host or cells: Xenopus laevis oocytes injected with ρ1 mRNA
T1 sequence (P24046 21-479 limits assumed): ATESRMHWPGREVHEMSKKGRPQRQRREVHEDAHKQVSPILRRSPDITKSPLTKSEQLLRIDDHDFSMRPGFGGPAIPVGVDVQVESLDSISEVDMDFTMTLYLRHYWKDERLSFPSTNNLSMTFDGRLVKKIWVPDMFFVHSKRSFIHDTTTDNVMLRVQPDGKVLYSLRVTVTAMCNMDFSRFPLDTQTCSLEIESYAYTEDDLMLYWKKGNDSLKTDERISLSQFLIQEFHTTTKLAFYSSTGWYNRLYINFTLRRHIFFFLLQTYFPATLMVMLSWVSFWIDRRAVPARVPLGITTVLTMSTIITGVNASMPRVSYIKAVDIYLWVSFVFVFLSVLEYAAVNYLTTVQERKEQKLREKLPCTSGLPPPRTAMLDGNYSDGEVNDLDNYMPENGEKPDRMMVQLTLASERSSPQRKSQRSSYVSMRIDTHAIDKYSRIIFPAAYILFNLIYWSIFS
As to the kind of experiment: GABAC receptor two-electrode voltage clamp in Xenopus laevis oocytes. It is filed as cell-based. How it is done: Human ρ1 cDNA encapsulated in pcDNA1.1 was linearized with Not1. Linearized cDNA was transcribed to mRNA using the T7 “mMESSAGE mMACHINE” kit (Ambion Inc. Austin, Tex., USA) as previously described. […] Eur. J. Pharmacol. 2001, 430, 185-192. GABAC receptor activity assays were performed in oocytes harvested from Xenopus laevis (housed in the Department of Veterinary Science at the University of Sydney) and defolliculated. The oocytes were stored in ND96 solution (in mM) NaCl (96), KCl (2), MgCl2 (1), CaCl2 (1.8), HEPES (hemi-Na salt; 5) supplemented with sodium pyruvate (2.5), theophylline (0.5), and 50 μg/ml^−1 gentamycin for 2-5 days post-injection.
Electrophysiological methods were performed as previously described. Hertz L, Juurlink B H J, Hertz E, Fosmark H and Schousboe A. Preparation of Primary Cultures of Mouse (Rat) Astrocytes, in A Dissection and Tissue Culture Mnual of the Nervous System (Shahar A, de Vellis J, Vernadakis A and Haber B eds) pp 105-108, Alan R. Liss, Inc., New York, 1989 Stage V-VI oocytes were injected with 10 ng 50 nl^−1 of ρ1 mRNA and then stored at 16° C. Recordings of receptor activity were obtained for 2-5 days by a two-electrode voltage clamp by means of a Geneclamp 500 amplifier (Axon Instruments Inc., Foster City, Calif.), a MacLab 2e recorder (AD Instruments, Sydney, NSW), and Chart version 3.6.3 program. Oocytes were voltage clamped at −60 mV, and the preparation was continually perfused with ND96 solution at room temperature. […] Compound 2 (CPP-115) was tested on three oocytes from at least two harvests.
For orientation: Two-electrode voltage clamp is typically applied to oocytes expressing channels or transporters.

For experiment [7], the system named is cortical astrocytes. Briefly: [3H]GABA uptake in cultured cortical astrocytes. Type of experiment: cell-based. The note with it: Mus musculus, Astrocyte. How it is done:
Cortical astrocytes were cultured essentially as previously described. Hertz L, Juurlink B H J, Hertz E, Fosmark H and Schousboe A. Preparation of Primary Cultures of Mouse (Rat) Astrocytes, in A Dissection and Tissue Culture Manual of the Nervous System (Shahar A, de Vellis J, Vernadakis A and Haber B eds) pp 105-108, Alan R. Liss, Inc., New York, 1989 The neopallium was removed from new born NMRI mice (Taconic, Denmark) and passed through an 80 μm nylon sieve and cultured in modified Dulbecco's modified Eagle's medium with fetal calf serum. The calf serum was lowered from 20% to 10% over three weeks, and finally the astrocytes were allowed to differentiate using 0.25 mM dibutyryl cyclic AMP during the last week of growth.
Cortical neurons were cultured essentially as previously described by removing the neopallium of 15-day old NMRI embryos by dissection followed by mild trypsination. Hertz E, Yu A C H, Hertz L, Juurlink B H J and Schousboe A. Preparation of Primary Cultures of Mouse Cortical Neurons, in A Dissection and Tissue Culture Manual of the Nervous System (Shahar A, de Vellis J, Vernadakis A and Haber B eds) pp 183-186, Alan R. Liss, Inc., New York, 198. […] Radioactivity was measured using Microscint™ 20 scintillation fluid (PerkinElmer) and a Packard TopCount microplate scintillation counter.

Experiment [8] has as its system Sprague Dawley rats. Briefly: cocaine induced dopamine surge in nucleus accumbens (FIG. 3). The note with it: 1 mg/kg single dose.
[9] abbreviates: cocaine/saline+compound pairings, cocaine 20 mg/kg.
[10] abbreviates: saline/Compound 2 (CPP-115) pairings.

This is an account of results in US8969413B2.

Each structure is given as a SMILES string. pIC50: −log10 of the molar value. Where two headings read alike, the source gives them in different places.

Regarding `N[C@H]1C[C@@H](C(=O)O)CC1=C(F)F` [CPP-115], the scBIC protected result in experiment [1] is listed as “About 50% protected”. Also, the “inhibition of radioligand binding at GABAB receptors” value in experiment [2] is on record as “no inhibition of binding was observed”. Moreover, in experiment [3] (1.0 mg/kg i.p. 2.5 h before test, cocaine 20 mg/kg, listed as 2), the “expression of cocaine-induced CPP” value is given as “blocked the expression of cocaine-induced CPP”. Besides, in experiment [3] (1.0 mg/kg versus vigabatrin 300 mg/kg), the “effect on cocaine-induced CPP relative to vigabatrin” value came out at 300 times. Further, the “time spent in chamber, first printed value” in experiment [3] (setting [9]) was found to be 7.9 ± 1.5 min; in experiment [3] (setting [10]), 8.1 ± 3.2 min. Besides, the “time spent in chamber, second printed value” was 7.1 ± 1.9 min in experiment [3] (setting [9]) and 6.9 ± 3.9 min in experiment [3] (setting [10]). Further, in experiment [4] (Mus musculus, ip, read-out: scPIC ED50), the ED50 was determined as 60.7 mg/kg. Moreover, the “scPIC TPE” value in experiment [4] (Single IP drug dose, 2.5 mg/kg PIC) is “TPE 2 hours”. Also, in experiment [5] (100 μM, rat brain cortical homogenate), the “inhibition of radioligand binding at GABAA receptors” value is given as “no inhibition of binding was observed”. Also, the negative logarithm of the IC50 (pIC50) in experiment [5] (read-out: [3H]muscimol competition (GABAA receptor) IC50, 5 nM [3H]muscimol, 0 °C, 60 min) is under 4.00; in experiment [7], under 3.00. Further, the “effect as agonist or antagonist at ρ1 GABAC receptors” value in experiment [6] (100 μM) is recorded as “no effect as an agonist or antagonist”. Further, the “activation of current in oocytes” value in experiment [6] (100 μM alone, clamped at −60 mV) is recorded as “did not activate a current”. Besides, the “reduction of the GABA response on co-application” value in experiment [6] (100 μM co-applied with GABA 1 μM, p>0.05, n=3) was “did not significantly reduce the GABA response”. Besides, the “dopamine levels after cocaine challenge” value in experiment [8] is listed as “less than 300 times baseline”.

In general, ED50 refers to the midpoint of the dose-response relation. As usually defined, the pIC50 is −log10 of the IC50, conventionally taken in molar units.
